Assay results taken from patent US12617776B2 (priority 2020, dated 2026).
≈ marks a conversion by molar mass, not a printed value. Entries after “also recorded” stand apart in the source; their conditions may differ. Structures can show the parent of a compound that is named as a salt.

Legend:
physchem [1] = test: physchem
Procedure: The aliquot volumes were typically 25-100 μL.
From the infrared (IR) transmission data of the sample vials, dissolution and precipitation events were recorded as the point of complete transmission of IR and the onset of turbidity by IR respectively.
Samples were held at ambient temperature for 18 hours to maximize the chance of precipitation. Any recoverable solids were analyzed by XRPD.

physchem [2] = settings: water, thermodynamic from solid
Procedure: The aliquot volumes were typically 10-20 μL. Complete dissolution of the test material was determined by visual inspection. The solubility was estimated from these experiments based on the total solvent used to provide complete dissolution.

physchem [3] = settings: 25 °C, pH 6.6, water, thermodynamic from solid
Procedure: The mixture was stirred and after 30 minutes a thick suspension was formed. Further aliquots (20 μL) of water were added until a fine suspension was formed. This was stirred at 25° C. overnight and filtered to yield a clear solution. The solution was weighed and evaporated to constant weight to determine the solubility.

[4] = Humidity and temperature stressing of AAT-730 free base (XRPD, 1H NMR); type: physicochemical; settings: for XRPD analysis of post-stressed sample (physical form): 7 days
Procedure: The stability was also tested at a range of elevated relative humidity conditions for 7 days.

[5] = Solubility estimation of AAT-730 by aliquot addition; type: physicochemical; settings: for Solubility range: 20° C.
Procedure: The aliquot volumes were typically 20-200 μL. […] Samples were held at ambient temperature for at least 18 hours to maximize the chance of precipitation. Any recoverable solids were analyzed by XRPD.

[6] = Thermal stressing of AAT-730 free base forms (Method 2-9); type: physicochemical; settings: for XRPD after thermal stress: sealed vial, several days
[7] = Salt screening experiments of AAT-730 (XRPD of isolated solids); settings: salt screen
Procedure: Solutions of the free base in the chosen solvent were added to either solutions of the salt former, or if the salt was not soluble in the solvent, slurries of the salt formers. Any solids which precipitated were recovered and analyzed by XRPD analysis to determine if the solid was crystalline.
The required acid (1 molar equivalent) was added to each HPLC vial and the API stock solution (containing 30 mg of API) was added. The mixtures were stirred at 300 rpm (ambient temperature) for up to 16 hours. Any solids which precipitated were isolated by centrifugation, solvent decanted and solids dried with thin strips of filter paper prior to analysis by XRPD. Any solutions were evaporated to dryness and solids analyzed by XRPD. Gels were either triturated or temperature cycled in MTBE.
API (30 mg), acid co-former (1 mol. eq.) and ethanol (300 μL) were added to HPLC vials and stirred at 40° C. for up to 16 hours. Solids were recovered by centrifugation, solvent decanted and dried with thin strips of filter paper prior to analysis by XRPD. Solutions were evaporated to dryness.
Gels isolated from the screening experiments were triturated in either MTBE or EtOAc to induce precipitation. MTBE or EtOAc (200 μL) was added to the gel and stirred at 40° C. for up to 3 hours prior to cooling to ambient and stirring for up to 48 hours. Any solids were isolated by centrifugation, solvent decanted and solids dried with thin strips of filter paper prior to analysis by XRPD. Any solutions were evaporated to dryness.
Gels isolated from screening experiments were temperature cycled in MTBE according to the following program: • Heating from 20° C. to 40° C. at 0.2° C./minute. • Cooling to 20° C. at 0.1° C./minute. • Stirring speed 400 rpm.
The vials were sealed and the contents milled using a Fritsch Pulverisette 5 planetary mill (30 repetitions of 20 minutes milling at 400 rpm and 20 minutes pause). The resultant material was analyzed using XRPD.
Some of the acid co-formers had pKa values which were suitable for forming either hemi or bis-salts and experiments were carried out using these acids. Crystalline solids were isolated from the experiments using 0.5 mol. eq. of EDSA but these appeared to be composed of polymorphs of the free base and salt formation hadn't occurred with 0.5 mol. eq. of EDSA. The EDSA salt formed with 2 mol. eq. of EDSA yielded solids with the same XRPD pattern as the mono-EDSA salt. Two different crystalline salts were isolated from the reactions with HCl and these may be the mono and bis-HCl salts, however stoichiometry cannot be determined by ^1H NMR. The salt formation with MSA yielded the bis-MSA salt and this is discussed in Example 3-16. The salt isolated with glutaric acid has the same XRPD pattern as the salt isolated with 1 mol. eq. of glutaric acid and is a mono-glutarate salt (Example 3-17). A solid was isolated from the experiment with 2 mol. eq. of sulfuric acid and this may be a sulfate.

With `CN(C)CCn1c(CC(C)(C)C)nc2cc(S(=O)(=O)C3CN(CCO)C3)ccc21` [AAT-730 HCl salt Pattern 1] the solubility (physchem [1]; DMSO/water (80/20), ambient temperature, aliquot addition) was “greater than or equal to 20 mg/mL” and the solubility (physchem [2]) was 164 to 205 mg/mL.
For `CN(C)CCn1c(CC(C)(C)C)nc2cc(S(=O)(=O)C3CN(CCO)C3)ccc21` [AAT-730 HCl salt Pattern 2], the solubility (physchem [1]; pH 6, water, thermodynamic from solid, aqueous solubility, water, pH 6-7, aliquot addition) was 197 to 263 mg/mL.
Work on `CN(C)CCn1c(CC(C)(C)C)nc2cc(S(=O)(=O)C3CN(CCO)C3)ccc21` [AAT-730 HCl salt, HCl salt of 2-[3-({1-[2-(dimethylamino)ethyl]-2-(2,2-dimethylpropyl)-1H-1,3-benzodiazol-5-yl}sulfonyl)azetidin-1-yl]ethan-1-ol] yielded a solubility thermodynamic (physchem [3]) of roughly 220 mg/mL, a solubility (physchem [1]; 20 °C, aqueous with cosolvent or surfactant or cyclodextrin, thermodynamic from solid, Solubility at 20° C., EtOH/water (50/50), aliquot addition) of 205 to 273 mg/mL and a solubility (physchem [1]; 20 °C, organic solvent or mixture, thermodynamic from solid, Solubility at 20° C., DMSO/water (80/20, Aw at most 0.27), aliquot addition) of 22 to 25 mg/mL. It also gave a solubility (physchem [1]; 20 °C, organic solvent or mixture, thermodynamic from solid, Solubility at 20° C., THF/water (13/1, Aw at most 0.9), aliquot addition) of less than 20 mg/mL, a solubility (physchem [1]; 20 °C, organic solvent or mixture, thermodynamic from solid, Solubility at 20° C., acetone, aliquot addition) of less than 20 mg/mL and a solubility (physchem [1]; 20 °C, organic solvent or mixture, thermodynamic from solid, Solubility at 20° C., acetone/water (20/1, Aw at most 0.6), aliquot addition) of less than 20 mg/mL. It also gave a solubility (physchem [1]; 20 °C, organic solvent or mixture, thermodynamic from solid, Solubility at 20° C., acetonitrile, aliquot addition) of less than 21 mg/mL, a solubility (physchem [1]; 20 °C, organic solvent or mixture, thermodynamic from solid, Solubility at 20° C., dichloromethane, aliquot addition) of less than 20 mg/mL and a solubility (physchem [1]; 20 °C, organic solvent or mixture, thermodynamic from solid, Solubility at 20° C., ethanol, aliquot addition) of less than 21 mg/mL. For the same compound, the solubility (physchem [1]; 20 °C, organic solvent or mixture, thermodynamic from solid, Solubility at 20° C., methanol, aliquot addition) was less than 20 mg/mL, the solubility (physchem [1]; 20 °C, organic solvent or mixture, thermodynamic from solid, Solubility at 20° C., tetrahydrofuran, aliquot addition) was less than 20 mg/mL and the solubility (physchem [1]; aqueous with cosolvent or surfactant or cyclodextrin, thermodynamic from solid, solubility) was no less than 20 mg/mL. It also gave a solubility (physchem [1]; organic solvent or mixture, thermodynamic from solid, solubility, DMSO/water (80/20), ambient temperature, aliquot addition) of no less than 20 mg/mL.
With `CN(C)CCn1c(CC(C)(C)C)nc2cc(S(=O)(=O)C3CN(CCO)C3)ccc21` [AAT-730, 2-[3-({1-[2-(dimethylamino)ethyl]-2-(2,2-dimethylpropyl)-1H-1,3-benzodiazol-5-yl}sulfonyl)azetidin-1-yl]ethan-1-ol] the “1H NMR analysis of post-stressed samples” value ([4]; 1 week at 25° C./60% RH, 40° C./75% RH, 70° C./75% RH) was “no change”, the “XRPD analysis of post-stressed sample (physical form)” value (“XRPD analysis of post-stressed sample” for short) ([4]; 25° C./60% RH) was “remained as an anhydrate” and the “XRPD analysis of post-stressed sample” value ([4]; 40° C./75% RH, listed as AAT-730 free base) was “change in form to the hydrate; also recorded: converted to a hydrate”. For the same compound, the “XRPD analysis of post-stressed sample” value ([4]; 70° C./75% RH, listed as AAT-730 free base) was “change in form to the hydrate; also recorded: converted to a hydrate”, the Solubility range ([5]; 2-propanol, isopropyl alcohol (IPA)) was 81 to 87 mg/mL and the Solubility range ([5]; EtOH/water (96/4, Aw at most 0.25)) was 313 to 417 mg/mL. For the same compound, the Solubility range ([5]; MeOH/water (84/16, Aw at most 0.44)) was 638 to 1275 mg/mL, the Solubility range ([5]; THF/water (96/4, Aw at most 0.74)) was 410 to 615 mg/mL and the Solubility range ([5]; acetone) was 118 to 157 mg/mL. The Solubility range ([5]; acetone/water (50/50, Aw at most 0.91)) was 618 to 1235 mg/mL, the Solubility range ([5]; acetonitrile (ACN)) was 145 to 164 mg/mL and the Solubility range ([5]; anisole) was 58 to 60 mg/mL. For the same compound, the Solubility range ([5]; cyclohexane) was less than 24 mg/mL, the Solubility range ([5]; dichloromethane (DCM)) was 360 to 504 mg/mL and the Solubility range ([5]; dimethyl sulfoxide (DMSO)) was 242 to 303 mg/mL. It also gave a Solubility range ([5]; dioxane) of 117 to 129 mg/mL, a Solubility range ([5]; ethanol (EtOH)) of 213 to 256 mg/mL and a Solubility range ([5]; ethyl acetate (EtOAc)) of 27 to 28 mg/mL. For the same compound, the Solubility range ([5]; methanol (MeOH)) was greater than 510 mg/mL, the Solubility range ([5]; methyl isobutyl ketone (MIBK)) was less than 26 mg/mL and the Solubility range ([5]; methyl tert-butyl ether (MTBE)) was less than 26 mg/mL. The Solubility range ([5]; tetrahydrofuran (THF)) was 246 to 492 mg/mL, the solubility ([5]; thermodynamic from solid, water, ambient temperature, aliquot addition, read-out: aqueous solubility) was 367 to 514 mg/mL (≈ 868 to 1220 mM) and the Solubility range ([5]; toluene) was less than 25 mg/mL. For the same compound, the “XRPD after thermal stress” value ([6]; 40° C.) was “Pattern A +”, the “XRPD after thermal stress” value ([6]; 60° C.) was “Pattern A +” and the “physical stability to thermal stressing” value ([6]; at the temperatures tested (40 or 60° C.)) was “physically unstable”. For the same compound, the “XRPD Result” value ([7]; EDSA 2 mol. eq., THF, sample CAT0001E-019-04) was “AAT-730 EDSA”, the “XRPD Result” value ([7]; H2SO4 2 mol. eq., THF, sample CAT0001E-019-08) was “possible sulfate Pattern B” and the “XRPD Result” value ([7]; HCl 2 mol. eq., EtOH, sample CAT0001E-019-05B) was “AAT-730 HCl Pattern B”. For the same compound, the “XRPD Result” value ([7]; HCl 2 mol. eq., THF, sample CAT0001E-019-05) was “AAT-730 HCl Pattern A**”, the “XRPD Result” value ([7]; L-aspartic acid 0.5 mol. eq., THF, sample CAT0001E-019-09) was “API” and the “XRPD Result” value ([7]; L-glutamic acid 0.5 mol. eq., THF, sample CAT0001E-019-11) was “API”. For the same compound, the “XRPD Result” value ([7]; MSA 2 mol. eq., THF, sample CAT0001E-019-06) was “AAT-730 MSA Pattern B” and the “XRPD Result” value ([7]; glutaric acid 0.5 mol. eq., THF, sample CAT0001E-019-12) was “AAT-730 glutarate”.
